Experiment: rilpivirine particle size by wet dispersion laser diffraction
Format: physicochemical
Conditions: rilpivirine nanoparticles used for the aqueous compositions of Example 5
Method: The compositions were freeze dried and reconstituted with water to provide 9 mL of the reconstituted aqueous composition at time t=0, freeze dried and reconstituted with water to provide 9 mL of the reconstituted aqueous composition after being stored under conditions of 25° C./60% RH and 40° C./75% RH for 1 month, and freeze dried and reconstituted with water to provide 9 mL of the reconstituted aqueous composition after being stored under conditions of 25° C./60% RH for 6 months. The rilpivirine particle sizes were measured in both instances following the method below.
The volume-based particle size distribution of the rilpivirine suspensions was determined by means of wet dispersion laser diffraction, using a Malvern Mastersizer 3000 laser diffraction (Malvern Instruments) and Hydro MV wet dispersion module.

Dv10: about 96.5 nm
Dv50: about 224 nm
Dv90: about 509 nm
Structure (SMILES): Cc1cc(/C=C/C#N)cc(C)c1Nc1ccnc(Nc2ccc(C#N)cc2)n1 [rilpivirine nanoparticles, 4-[[4-[[4-[(1E)-2-cyanoethenyl]-2,6-dimethylphenyl]amino]-2-pyrimidinyl]amino]-benzonitrile]

Reference: patent US20250275967A1, “FREEZE DRIED COMPOSITIONS” (Janssen Sciences Ireland Unlimited Company, priority 2022, published 2025)
